Data from patent US10765651B2, “Co-crystals of substituted glycine and uses thereof” (SyneuRx International (Taiwan) Corp., priority 2017, dated 2020).
≈ marks a conversion by molar mass, not a printed value.

Tests used:
[1] = Hygroscopicity test, condition 3 (dynamic vapor sorption, 0 to 90 to 0% RH); assay type: physicochemical; conditions: DVS, 25° C.
Protocol: Measurement were taken from 0 to 90 to 0% RH at 25° C. with 10% RH per step with equilibration set to dm/dt+0.01%/min for 10 min or 180 min/step.

[2] = Hygroscopicity test, condition 2 (humidity chamber, weight change); assay type: physicochemical
[3] = physchem; conditions: water, thermodynamic from solid

SMILES: CNCC(=O)O [N-MG, N-methylglycine, reference compound]
- Change In Mass (%) ([1]; RH 0%): 0.0%
- Change In Mass (%) ([1]; RH 10%): 0.0%
- Change In Mass (%) ([1]; RH 20%): 0.0%
- Change In Mass (%) ([1]; RH 30%): 0.0%
- Change In Mass (%) ([1]; RH 40%): 0.0%
- Change In Mass (%) ([1]; RH 50%): 0.0%
- Change In Mass (%) ([1]; RH 60%): 0.0%
- Change In Mass (%) ([1]; RH 70%): 38.6%
- Change In Mass (%) ([1]; RH 80%): 87.4%
- Change In Mass (%) ([1]; RH 90%): 130.9%
- Weight ([2]; 30° C., 75% RH, 0 hr): 0.1375 g
- Outward (appearance) ([2]; 30° C., 75% RH, 1 hr): 90%
- Weight ([2]; 30° C., 75% RH, 1 hr): 0.1585 g
- Weight change (%), water absorbed ([2]; 30° C., 75% RH, 1 hr): (+15.3%)
- Weight ([2]; 30° C., 75% RH, 2 hr): 0.1942 g
- Weight change (%), water absorbed ([2]; 30° C., 75% RH, 2 hr): (+41.2%)
- Outward (appearance) ([2]; 30° C., 75% RH, 3 hr): Liquid
- Weight ([2]; 30° C., 75% RH, 3 hr): 0.2146 g
- Weight change (%), water absorbed ([2]; 30° C., 75% RH, 3 hr): (+56.1%)
- Weight ([2]; 30° C., 75% RH, 5 hr): 0.2403 g
- Weight change (%), water absorbed ([2]; 30° C., 75% RH, 5 hr): (+74.8%)
- Weight ([2]; 30° C., 75% RH, 24 hr): 0.2884 g
- Weight change (%), water absorbed ([2]; 30° C., 75% RH, 24 hr): (+109.7%)
- Weight ([2]; 30° C., 75% RH, 48 hr): 0.2885 g
- Weight change (%), water absorbed ([2]; 30° C., 75% RH, 48 hr): (+109.8%)
- Weight ([2]; 30° C., 75% RH, 72 hr): 0.2885 g
- Weight change (%), water absorbed ([2]; 30° C., 75% RH, 72 hr): (+109.8%)
- Outward (appearance) ([2]; dry before): White
- Weight ([2]; dry before): 0.1375 g
- Weight change (%) ([2]; dry before (change on drying to 0 hr weight)): (−0%)
- solubility [3]: 660 mg/mL (≈ 7410 mM)
